Literature values as cited in US6346270B1, “Phenytoin therapy” (Alza Corporation, priority 1997, dated 2002).

## O=C1NC(=O)C(c2ccccc2)(c2ccccc2)N1 [phenytoin]
  solubility in aqueous fluids: poorly soluble
